pIC50: −log10 of the molar value. Read-outs that look alike come from different tables or passages of the source.

By MRT is commonly meant a mean duration of stay, worked out from the concentration-time curve. As a reminder, the half-life is how long it takes for the measured level to halve. Read a low half-life as fast loss. A word on the pIC50: it is −log10 of the IC50, conventionally taken in molar units.

One data set relates to MRC5 cells. As to the kind of experiment: Cell viability assay in MRC5 cells (MTT).
Another data set is described as follows: PAMPA permeability assay. Format: in vitro ADME.
Data set [1] in a line: Pharmacokinetic measurements in rats (i.v., i.t., oral). Format: in vivo. The settings on record: rat; for concentration at 0.1 h / concentration at 1.5 h / concentration at 24 h: lung; for concentration at 0.1 h: read-out: lung concentration (nM) at time 0.1 h; for concentration at 1.5 h: read-out: lung concentration (nM) at time 1.5 h; for concentration at 24 h: read-out: lung concentration (nM) at time 24 h.

The next data set addresses PDGFRβ (Homo sapiens (Human), UniProt P09619). As to the kind of experiment: PDGF-BB induced phosphorylation of PDGFRβ in fibroblasts (MRC5, HTRF). The class given is cell-based. The conditions noted are these: MRC5 cells, PDGFBB stimulation; read-out: PDGFBB-induced PDGFRβ phosphorylation in MRC5 cells (IC50). For orientation: TR-FRET usually uses a lanthanide donor and a delayed reading to cut background.

The mark [2] stands for this setting: male, CD, other: intra-tracheal.
Where [3] appears, read: i.t. dose 0.1 (nintedanib 0.42).
[4] abbreviates: i.v. dose 0.1 (nintedanib 0.42).

PDGFRβ, sequence (P09619 33-1106): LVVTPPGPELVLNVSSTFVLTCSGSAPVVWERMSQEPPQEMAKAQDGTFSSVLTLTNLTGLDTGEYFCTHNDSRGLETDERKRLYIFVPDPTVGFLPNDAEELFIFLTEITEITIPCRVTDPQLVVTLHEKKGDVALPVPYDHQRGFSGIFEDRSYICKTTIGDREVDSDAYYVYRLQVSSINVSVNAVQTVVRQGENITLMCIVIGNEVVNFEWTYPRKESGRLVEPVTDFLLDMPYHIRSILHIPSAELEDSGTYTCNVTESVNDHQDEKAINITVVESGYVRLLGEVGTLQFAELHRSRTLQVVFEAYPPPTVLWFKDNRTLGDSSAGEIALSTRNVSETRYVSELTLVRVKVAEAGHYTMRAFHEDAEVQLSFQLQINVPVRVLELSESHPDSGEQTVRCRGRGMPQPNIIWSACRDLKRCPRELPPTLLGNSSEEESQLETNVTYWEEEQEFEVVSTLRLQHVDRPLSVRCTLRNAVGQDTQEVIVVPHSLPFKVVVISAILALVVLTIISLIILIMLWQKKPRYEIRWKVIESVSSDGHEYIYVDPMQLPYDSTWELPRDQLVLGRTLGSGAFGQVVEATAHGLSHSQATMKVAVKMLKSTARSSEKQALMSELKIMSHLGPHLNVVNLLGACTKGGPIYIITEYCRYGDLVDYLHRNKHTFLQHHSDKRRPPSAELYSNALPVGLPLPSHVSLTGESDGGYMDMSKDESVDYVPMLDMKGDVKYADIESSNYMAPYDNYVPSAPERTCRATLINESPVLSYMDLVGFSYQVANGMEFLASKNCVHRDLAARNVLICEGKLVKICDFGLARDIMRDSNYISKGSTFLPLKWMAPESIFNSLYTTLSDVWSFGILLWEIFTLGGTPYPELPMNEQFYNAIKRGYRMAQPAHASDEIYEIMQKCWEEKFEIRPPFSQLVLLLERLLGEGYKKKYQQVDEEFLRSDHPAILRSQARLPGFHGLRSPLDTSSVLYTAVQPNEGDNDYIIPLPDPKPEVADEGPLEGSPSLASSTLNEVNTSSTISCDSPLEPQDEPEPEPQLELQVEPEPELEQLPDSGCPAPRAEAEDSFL

On to `COC(=O)c1cc2c(cc1C)/C(=C(/Nc1ccc(C(=O)NCC3CCN(CCO)CC3)cc1)c1ccccc1)C(=O)N2` [Example 14, (Z)-Methyl 3-(((4-(((1-(2-hydroxyethyl)piperidin-4-yl)methyl)carbamoyl)phenyl)amino) (phenyl)methylene)-5-methyl-2-oxoindoline-6-carboxylate], for which, in the data set on MRC5 cells, the “Cell viability at 100 nM (%)” value amounted to 116.2%, the “Cell viability at 300 nM (%)” value worked out at 107.9% and the “Cell viability at 1000 nM (%)” value came to 61%.

As to `COC(=O)c1ccc2c(c1)NC(=O)/C2=C(\Nc1ccc(N(C)C(=O)CN2CCN(C)CC2)cc1)c1ccccc1` [Nintedanib, reference compound], the “% Recovery” value in “PAMPA permeability assay” worked out at 64.0%. The molecule further showed a recovery at 5 hr, 10 μM in the data set “PAMPA permeability assay” (pH 7, PAMPA) of 83.5%. Also, in data set [1] (male, CD, iv), the concentration at 0.1 h is 2300 nM, the concentration at 1.5 h is 1390 nM and the concentration at 24 h was found to be 66 nM. Besides, in data set [1] (setting [2]), the concentration at 0.1 h amounted to 12400 nM, the concentration at 1.5 h worked out at 7700 nM and the concentration at 24 h worked out at 152 nM. In data set [1] (male, CD, plasma, iv), this molecule had a mean residence time MRT of 3.8 h, a clearance of 7.44 L/h/kg and a half-life of 3.9 h. The Vd in data set [1] (male, CD, plasma, iv, read-out: Vss) was 28 L/kg. In data set [1] (setting [3]), the “i.t. BAV (%)” value is reported as 43%, the “BAL % administered dose at time 0.1 h” value was 2%, the “BAL % administered dose at time 1.5 h” value was found to be 1% and the “BAL % administered dose at time 24 h” value is 0.1%. Besides, in data set [1] (setting [4]), the “BAL % administered dose at time 0.1 h” value is listed as 0.06%, the “BAL % administered dose at time 1.5 h” value stood at 0.03% and the “BAL % administered dose at time 24 h” value is given as “BQL”. In the data set on MRC5 cells, the “Cell viability at 100 nM (%)” value came out at 104.6%, the “Cell viability at 300 nM (%)” value came to 105.6% and the “Cell viability at 1000 nM (%)” value is 92.7%.

With `COC(=O)c1cc2c(cc1C)/C(=C(/Nc1ccc(C(=O)NC3CCN(CCO)CC3)cc1)c1ccccc1)C(=O)N2` [Example 49, (Z)-Methyl 3-(((4-((1-(2-hydroxyethyl)piperidin-4-yl)carbamoyl)phenyl)amino)(phenyl)methylene)-5-methyl-2-oxoindoline-6-carboxylate], on PDGFRβ, the pIC50 is 8.90.

For the molecule `COC(=O)c1cc2c(cc1C)/C(=C(/Nc1ccc(C(=O)NCCN(C)CCO)cc1)c1ccccc1)C(=O)N2` [Example 51, (Z)-Methyl 3-(((4-((2-((2-hydroxyethyl)(methyl)amino)ethyl)carbamoyl)phenyl)amino)(phenyl)methylene)-5-methyl-2-oxoindoline-6-carboxylate], the pIC50 at PDGFRβ is 8.17. Also, in the data set with MRC5 cells, the “Cell viability at 100 nM (%)” value is on record as 113%, the “Cell viability at 300 nM (%)” value came to 95.5% and the “Cell viability at 1000 nM (%)” value was determined as 83.8%.

Take `COC(=O)c1cc2c(cc1C)/C(=C(/Nc1ccc(C(=O)NCC3CCN(CCO)CC3)cc1)c1ccccc1)C(=O)N2` [Example 50, (Z)-Methyl 3-(((4-(((1-(2-hydroxyethyl)piperidin-4-yl)methyl)carbamoyl)phenyl)amino)(phenyl)methylene)-5-methyl-2-oxoindoline-6-carboxylate]: in the data set with MRC5 cells, the “Cell viability at 100 nM (%)” value is reported as 116.2%, the “Cell viability at 300 nM (%)” value is given as 107.9% and the “Cell viability at 1000 nM (%)” value is 61.0%.

As for `COC(=O)c1cc2c(cc1C)/C(=C(/Nc1ccc(C(=O)N3CCN(CC(=O)NCCO)CC3)cc1)c1ccccc1)C(=O)N2` [Example 15, (Z)-Methyl 3-(((4-(4-(2-((2-hydroxyethyl)amino)-2-oxoethyl)piperazine-1-carbonyl)phenyl)amino) (phenyl)methylene)-5-methyl-2-oxoindoline-6-carboxylate], in the data set on MRC5 cells, the “Cell viability at 100 nM (%)” value came to 91.3%, the “Cell viability at 300 nM (%)” value is 109.9% and the “Cell viability at 1000 nM (%)” value is recorded as 85.6%.

The record behind these values is patent publication US10669235B2, “Indole derivatives and their use as protein kinase inhibitors” (RESPIVERT LIMITED, priority 2016, dated 2020).
